According to patent EP0005541A2, “Substituted piperidine, morpholine or piperidone derivatives, fungicides containing these compounds, process for their preparation and their use, and the use of these compounds as fungicides” (F. HOFFMANN-LA ROCHE & CO. Aktiengesellschaft, priority 1978, dated 1979):

Experiments:
Assay type in all cases: in vivo
[1] = tested on: Erysiphe graminis; test: Erysiphe graminis protective spray test on barley seedlings (greenhouse); conditions: barley seedlings HERTA, infected 2 days after spraying, read 7 days after infection vs infected untreated control
Procedure: 30-40 Gerstenkeimlinge der Sorte HERTA (verteilt auf 2 Töpfe mit 7 cm Durchmesser) wurden jeweils im Einblattstadium mit einer wässerigen Dispersion der Testsubstanz (wie allgemein üblich aufbereitet als Spritzpulver) allseitig gründlich besprüht und anschliessend bei 22-26°C, 80% rel. Luftfeuchtigkeit und einer Photoperiode von 16 Stunden im Gewächshaus weiterkultiviert. Die Infektion erfolgte 2 Tage nach der Behandlung durch Bestäuben der Versuchspflanzen mit Kon dien von Erysiphe graminis. 7 Tage nach der Infektion wurde ::ie durch Erysiphe graminis befallene Blattfläche in % gegenüber derjenigen der infizierten, nicht behandelten Kontrolle ermittelt. Die Resultate sind in Tabelle I zusammengefasst.

[2] = tested on: Puccinia coronata; test: Puccinia coronata protective spray test on oat seedlings; conditions: oat seedlings FLAEMINGSKRONE, infected 2 days after spraying, read on day 9 after infection vs infected untreated control
Procedure: 30-40 Haferkeimlinge der Sorte FLAEMINGSKRONE (verteilt auf 2 Töpfe mit 7 cm Durchmesser) wurden jeweils im Einblattstadium mit einer wässerigen Dispersion der Testsubstanz (wie allgemein üblich aufbereitet als Spritzpulver) allseitig gründlich besprüht und anschliessend in einer Klimakabine bei 17°C. 70-80% rel. Luftfeuchtigkeit und einer Photoperiode von 16 Stunden weiterkultiviert. Nach 2 Tagen erfolgte die Infektion der Versuchspflanzen durch Besprühen mit in dest. Wasser suspendierten Uredosporen (300'000 Sporen/ml) vor. Puccinia coronata. Danach wurden die Pflanzen während 24 Stunden bei 20°C und einer Luftfeuchtigkeit von über 90W im Dunkeln inkubiert und anschliessend in ein Gewächshaus mit einer Temperatur von 22-26 °C, einer rel. Luftfeuchtigkeit von 70% und einer Photoperiode von 18 Stunden übe führt. Am 9. Tage nach der Infektion wurde die durch Pucrinia coronata befallene Blattfläche in % gegenüber der infizierten, nicht behandelten Kontrolle ermittelt. Die ResLltate sind in Tabelle I zusammengefasst.

[3] = tested on: Venturia inaequalis; test: Venturia inaequalis protective spray test on apple seedlings; conditions: infected 2 days after spraying, read on day 13 after infection vs infected untreated control
Procedure: 3 Apfelpflänzchen (verteilt auf 3 Töpfe mit 5 cm Durchmesser) aus Samen der Sorte GOLDIN DELICIOUS wurden im 4- bis 5-Blattstadium mit einer wässerigen Dispersion der Testsubstanz (wie allgemein üblich aufbereitet als Spritzpulver) allseitig gründlich besprüht. Die behandelten Pflanzen wurden anschliessend während 2 Tagen bei 17°C, 70-80%rel. Luftfeuchtigkeit und einer Photoperiode von 14 Stunden weiterkultiviert. Danach erfolgte die Infektion der Apfelsämlinge durch Besprühen mit in dest. Wasser suspendierten Konidien (200'000 Konidien/ml) von Venturia inaequalis. Nach der Infektion wurden die Pflanzen im Dunkeln während 48 Stunden bei 16-18°C und einer rel. Luftfeuchtigkeit von über 90% inkubiert und anschliessend in ein schattiertes Gewächshaus mit einer Temperatur von 22-26 °C und einer rel. Luftfeuchtigkeit von über 80% überführt. Am 13. Tage nach der Infektion erfolgte die Ermittlung der durch Venturia inaequalis befallenen Blattfläche gegenüber der infizierten, nicht behandelten Kontrolle. Die Resultate sind in Tabelle II zusammengefasst.

Structure (SMILES)	Wirkung (in %) Erysiphe graminis ([1]; 5 mg/l Spritzbrühe) [%]	Wirkung (in %) Erysiphe graminis ([1]; 16 mg/l Spritzbrühe) [%]	Wirkung (in %) Erysiphe graminis ([1]; 50 mg/l Spritzbrühe) [%]	Wirkung (in %) Erysiphe graminis ([1]; 160 mg/l Spritzbrühe) [%]	Wirkung (in %) Erysiphe graminis ([1]; 500 mg/l Spritzbrühe) [%]	Wirkung (in %) Puccinia coronata ([2]; 5 mg/l Spritzbrühe) [%]	Wirkung (in %) Puccinia coronata ([2]; 16 mg/l Spritzbrühe) [%]	Wirkung (in %) Puccinia coronata ([2]; 50 mg/l Spritzbrühe) [%]	Wirkung (in %) Puccinia coronata ([2]; 160 mg/l Spritzbrühe) [%]	Wirkung (in %) Puccinia coronata ([2]; 500 mg/l Spritzbrühe) [%]	Wirkung (in %) Venturia inaequalis ([3]; 5 mg/l Spritzbrühe) [%]	Wirkung (in %) Venturia inaequalis ([3]; 16 mg/l Spritzbrühe) [%]	Wirkung (in %) Venturia inaequalis ([3]; 50 mg/l Spritzbrühe) [%]	Wirkung (in %) Venturia inaequalis ([3]; 160 mg/l Spritzbrühe) [%]	Wirkung (in %) Venturia inaequalis ([3]; 500 mg/l Spritzbrühe) [%]
CC(Cc1ccc(C(C)(C)CCl)cc1)CN1CC(C)CC(C)C1 (stereo not shown) [1-/3-[p-(2-Chlor-1,1-dimethyl-äthyl)-phenyl]-2-methyl-propyl/-3,5-dimethyl-piperidin]	85	92	100	100	100	40	98	100	100	100	20	33	77	87	99
CC(Cc1ccc(C(C)(C)CCl)cc1)CN1CCCCC1 (stereo not shown) [1-/3-[p-(2-Chlor-1,1-dimethyl-äthyl)-phenyl]-2-methyl-propyl/-piperidin]	45	70	80	97	100	30	65	85	100	100	0	20	30	90	95
CCC(C)(C)c1ccc(C(C)=C(C)CN2CCC3(CC2)OCCO3)cc1 [1-[3-(p-tert.-Amyl-phenyl)-2,3-dimethyl-2-propenyl]-4,4-äthylendioxy-piperidin]	75	90	90	98	–	20	98	100	100	100	0	0	10	10	95
CCC(C)(C)c1ccc(CC(C)CN2CCC3(CC2)OCCO3)cc1 (stereo not shown) [1-[3-(p-tert.-Amyl-phenyl)-2-methyl-propyl]-4,4-äthylendioxy-piperidin]	75	85	90	100	100	10	30	90	100	100	0	40	63	97	98
CC(CN1CCC2(CC1)OCCO2)=C(C)c1ccc(C(C)(C)C)cc1 [1-[3-(p-tert.-Butyl-phenyl)-2,3-dimethyl-2-propenyl]-4,4-äthylendioxy-piperidin]	80	98	98	100	100	98	100	100	100	100	0	0	20	37	83
CC(CN1CCC(=O)CC1)=C(C)c1ccc(C(C)(C)C)cc1 [1-[3-(p-tert.-Butyl-phenyl)-2,3-dimethyl-2-propenyl]-4-piperidon]	0	60	100	100	100	0	25	100	100	100	0	10	20	37	83
CC(Cc1ccc(C(C)(C)C)cc1)CN1CCC2(CC1)OCCO2 (stereo not shown) [1-[3-(p-tert.-Butyl-phenyl)-2-methyl-propyl]-4,4-äthylendioxy-piperidin]	30	50	70	85	–	90	95	100	100	100	–	–	–	–	20
CC(Cc1ccc(C(C)(C)C)cc1)CN1CCC(=O)CC1 (stereo not shown) [1-[3-(p-tert.-Butyl-phenyl)-2-methyl-propyl]-4-piperidon]	75	80	93	100	–	0	0	0	0	98	0	0	0	10	90
CC(Cc1ccc(C(C)(C)CCl)cc1)CN1CC(C)OC(C)C1 (stereo not shown) [4-/3-[p-(2-Chlor-1,1-dimethyl-äthyl)-phenyl]-2-methyl-propyl/-2,6-dimethyl-morpholin]	60	75	90	100	100	0	0	20	100	–	13	67	93	95	95
CC(CN1CCCCC1)C(O)c1ccc(C(C)(C)C)cc1 (stereo not drawn) [α-(p-tert.-Butyl-phenyl)-β-methyl-1-piperidin-propanol]	75	80	87	98	98	10	30	80	100	100	10	20	43	93	100
